We go through 19 molecules from US10676468B2, “N-(3-heteroarylaryl)-4-arylarylcarboxamides and analogs as hedgehog pathway inhibitors and use thereof” (IMPACT Therapeutics, Inc., priority 2012, dated 2020).

Structures are written as SMILES.

Holding throughout (type): cell-based, mouse
In test [1] the test system is Hedgehog Signaling Pathway. As to the kind of experiment: SAG-induced differentiation of C3H10T1/2 cells into osteoblastic cells, intracellular alkaline phosphatase activity. Particulars: Mus musculus, C3H 10T1/2, 120 h, 1 μM SAG, 5 days, alkaline phosphatase activity (OD405), read-out: IC50 values of compounds that inhibit Hh pathway. Summed up: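 Mouse C3H10T1/2 cells were induced with SAG and exposed to compound (10 μM to 1 nM) for 5 days at 37 °C. Cells were lysed in 0.2% Triton, and alkaline phosphatase activity was read as OD405 over 30 min at 37 °C in pH 9.8 substrate buffer. IC50 came from a non-linear fit of background-subtracted OD405 against log concentration.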

Test [2] relates to Hedgehog Signaling Pathway. As to the kind of experiment: SHH-induced differentiation of C3H10T1/2 cells into osteoblastic cells, intracellular alkaline phosphatase activity. Particulars: Mus musculus, C3H 10T1/2, 120 h, 10 nM SHH-N, 5 days, alkaline phosphatase activity (OD405), read-out: IC50 values of compounds that inhibit Hh pathway. Summed up: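 Mouse C3H10T1/2 cells were induced with 10 nM SHH-N alongside test compound (10 μM–10 nM) for 5 days at 37 °C. Cells were lysed in 0.2% Triton, and alkaline phosphatase activity was read at OD405 over 30 min at 37 °C with the background reading subtracted. IC50 came from a nonlinear fit against log concentration.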

Test [3] relates to Hedgehog Signaling Pathway. As to the kind of experiment: Gli-Luc reporter gene cell assay in C3H10T1/2/Gli-Luc cells stimulated with Shh. The following applies: Mus musculus, C3H 10T1/2, 24 h, 30 nM Shh, luciferase activity (RLU), read-out: IC50 values of compounds that inhibit Hh pathway. The text has this: The Application of Reporter Gene Cell Assay for the Determination of the Inhibitory Activity of N-(3-(1H-benzo[d]imidazol-2-yl)-4-chlorophenyl)-2-methyl-4-((2S,6R)-2,6-dimethylmorpholino) benzamide and Analogs on Hedgehog Signaling Pathway
The binding of Sonic hedgehog (Shh) to its receptor Patched 1 initiates numerous intracellular signal transmission, and leads to the nuclear translocation of Gli and the elevated transcription of Gli target genes. When C3H10T1/2 cells are stably transfected with the Gli-Luc plasmids containing the luciferase gene under the control of Gli response element and stimulated with Shh, the expression of luciferase is elevated. Luciferase activity is indicative of the hedgehog signaling pathway activity. Therefore, the inhibitory activity of compounds on hedgehog signaling pathway can be measured using the luciferase activity when the transfected cells are stimulated with Shh.
The day before experiment, C3H10T1/2/Gli-Luc cells in log phase of growth were seeded into 96 well plate at a density of 20000 cells per well. The cells were maintained in DMEM (Hyclone) supplemented with 10% FBS (Hyclone) and incubated at 37° C. with 5% CO2 overnight. The compounds to be examined were diluted into 7 different concentrations by series of dilutions (⅓ and 1/10), and the eighth point of concentration is the DMSO control. Those solutions were diluted 100-fold in the fresh growth medium. The cells were taken out of the incubator and the medium of cultured cells were removed. Then, each well was added in an orderly manner with 80 μL of fresh growth medium, 20 μL of medium pre-dilution of positive compound and compounds to be tested, as well as 100 μL of growth medium containing 30 nM of Shh. The cells are returned to the incubator, and incubated for 24 hours.
Measurement of luciferase activity: After taking the 96 well plate out of the incubator, the supernatants were discarded and the cells were washed twice with PBS. Thereafter, each well was dispensed with 20 μL of lysis buffer (Promega E1531), and the plate was shaken for 30 min at room temperature. Following transferring 5 μL of cell lysate into 384 well plate (Greiner 781074), adding 25 μL of luciferase reaction buffer (Promega E1501) into each well and mixing the plate, the relative light unit (RLU) was immediately captured by VarioSkan Flash.
The data were analyzed with Prism 5 software (GraphPad). The relative light unit (RLU) was plotted against the log concentration of testing compound, and the obtained plot was fitted with non-linear curve fitting equation to calculate IC50 values. The curve fitting equation is Y (RLU)=Bottom+(Top−Bottom)/(1+10^((X−Log IC50))). X is the logarithm of concentration. Y is the measure of relative light unit (RLU).
The calculated IC50 value is a measurement of the inhibitory activity of compound to Hh pathway.

In the case of `Nc1cc(-c2ccc(C(F)(F)F)cc2)ccc1C(=O)Nc1ccc(Cl)c(-c2nc3ccccc3[nH]2)c1` [Example 25, N-(3-(1H-benzo[d]imidazol-2-yl)-4-chlorophenyl)-3-amino-4′-(trifluoromethyl)biphenyl-4-carboxamide], the half-inhibitory concentration (IC50) was 191 nM in test [1], 5.5 nM in test [2] and 4 nM in test [3].
On to `Cc1cc(N2C[C@@H](C)O[C@@H](C)C2)ccc1C(=O)Nc1ccc(Cl)c(-c2nc3ccccc3[nH]2)c1` [Example 32, N-(3-(1H-benzo[d]imidazol-2-yl)-4-chlorophenyl)-2-methyl-4-((2S,6R)-2,6-dimethylmorpholino)benzamide], for which the figures for the IC50 in test [1], in test [2] and in test [3] were 53 nM, 7.9 nM and 7.2 nM, respectively.
On to `C[C@@H]1CN(c2ccc(C(=O)Nc3ccc(Cl)c(-c4nc5ccccc5[nH]4)c3)cn2)C[C@H](C)O1` [Example 35, N-(3-(1H-benzo[d]imidazol-2-yl)-4-chlorophenyl)-6-((2S,6R)-2,6-dimethylmorpholino)nicotinamide], for which the IC50 in test [1] was found to be 56 nM; in test [2], 10 nM; in test [3] it was 7.8 nM.
For `Cc1nc(N2C[C@@H](C)O[C@@H](C)C2)ccc1C(=O)Nc1ccc(Cl)c(-c2nc3ccccc3[nH]2)c1` [Example 38, N-(3-(1H-benzo[d]imidazol-2-yl)-4-chlorophenyl)-2-methyl-6-((2S,6R)-2,6-dimethylmorpholino)nicotinamide] the same measures were 28 nM, 4.9 nM and 8.4 nM.
For the molecule `COc1ncc(-c2ccc(C(=O)Nc3ccc(Cl)c(-c4nc5ccccc5[nH]4)c3)c(C)c2)cn1` [Example 39, N-(3-(1H-benzo[d]imidazol-2-yl)-4-chlorophenyl)-2-methyl-4-(2-methoxypyrimidin-5-yl)benzamide], the figures for the IC50 in test [1], in test [2] and in test [3] were 40 nM, 15 nM and 8.2 nM, respectively.
For `Cc1cc(-c2cncnc2)ccc1C(=O)Nc1ccc(Cl)c(-c2nc3ccccc3[nH]2)c1` [Example 43, N-(3-(1H-benzo[d]imidazol-2-yl)-4-chlorophenyl)-2-methyl-4-(pyrimidin-5-yl)benzamide] the same measures were 16 nM, 8.5 nM and 12 nM.
`Cc1cc(-c2ccc(C(F)(F)F)cc2)ccc1C(=O)Nc1ccc(C)c(-c2nc3ccccc3[nH]2)c1` [Example 46, N-(3-(1H-benzo[d]imidazol-2-yl)-4-methylphenyl)-3-methyl-4′-(trifluoromethyl)biphenyl-4-carboxamide]: the concentration for half-maximal inhibition (IC50) in test [1] stood at 89 nM; in test [2], 5.1 nM; in test [3] it was 5.5 nM.
Turning to `Cc1cc(-c2ccc(C(F)(F)F)cc2)ccc1C(=O)Nc1ccc(Cl)c(-c2nc3ccccc3n2C)c1` [Example 47, N-(3-(1-methyl-1H-benzo[d]imidazol-2-yl)-4-chlorophenyl)-3-methyl-4′-(trifluoromethyl)biphenyl-4-carboxamide], the IC50 in test [1] is 102 nM; in test [2] it was 3.3 nM; in test [3], 8.7 nM.
As to `Cc1cc(-c2ccc(C(F)(F)F)cc2)ccc1C(=O)Nc1ccc(Cl)c(-c2nc3cnccc3[nH]2)c1` [Example 49, N-(3-(1H-imidazo[4,5-c]pyridin-2-yl)-4-chlorophenyl)-3-methyl-4′-(trifluoromethyl)biphenyl-4-carboxamide], the IC50 came to 261 nM in test [1], 2.4 nM in test [2] and 7.2 nM in test [3].
For `Cc1cc(-c2ccc(C(F)(F)F)cc2)ccc1C(=O)Nc1ccc(Cl)c(-c2ncc(-c3ccccc3)[nH]2)c1` [Example 50, N-(3-(5-phenyl-1H-imidazol-2-yl)-4-chlorophenyl)-3-methyl-4′-(trifluoromethyl)biphenyl-4-carboxamide] the same measures were 125 nM, 7.9 nM and 10 nM.
`Cc1cc(-c2ccc(C(F)(F)F)cc2)ccc1C(=O)Nc1ccc(Cl)c(-c2ccccn2)c1` [Example 59, N-(3-(pyridin-2-yl)-4-chlorophenyl)-3-methyl-4′-(trifluoromethyl)biphenyl-4-carboxamide]: the values for the half-inhibitory concentration (IC50) in test [1], in test [2] and in test [3] were 232 nM, 7.5 nM and 9.1 nM, respectively.
For `Cc1cc(-c2ccc(C(F)(F)F)cc2)ccc1C(=O)Nc1cncc(-c2nc3ccccc3[nH]2)c1` [Example 60, N-(5-(1H-benzo[d]imidazol-2-yl)pyridin-3-yl)-3-methyl-4′-(trifluoromethyl)biphenyl-4-carboxamide], the values for the IC50 in test [1], in test [2] and in test [3] were 141 nM, 18 nM and 23 nM, respectively.
For `COc1ccc(-c2ccc(C(=O)Nc3ccc(Cl)c(-c4nc5ccccc5[nH]4)c3)c(C)c2)cn1` [Example 66, N-(3-(1H-benzo[d]imidazol-2-yl)-4-chlorophenyl)-2-methyl-4-(6-methoxypyridin-3-yl)benzamide] the same measures were 24 nM, 7.1 nM and 6.1 nM.
For the molecule `Cc1cc(-c2ccc(C(F)(F)F)cc2)ccc1C(=O)Nc1ccc(Cl)c(-c2ncc(-c3cccs3)[nH]2)c1` [Example 68, N-(3-(5-(thiophen-2-yl)-1H-imidazol-2-yl)-4-chlorophenyl)-3-methyl-4′-(trifluoromethyl)biphenyl-4-carboxamide], the results for the concentration for half-maximal inhibition (IC50) in test [1], in test [2] and in test [3] were 69 nM, 4 nM and 9.9 nM, respectively.
Regarding `Cc1cc(-c2ccc(C(F)(F)F)cc2)ccc1C(=O)Nc1cnc(Cl)c(-c2nc3ccccc3[nH]2)c1` [Example 69, N-(5-(1H-benzo[d]imidazol-2-yl)-6-chloropyridin-3-yl)-3-methyl-4′-(trifluoromethyl)biphenyl-4-carboxamide], the figures for the IC50 in test [1], in test [2] and in test [3] were 33 nM, 0.55 nM and 4.2 nM, respectively.
For `Cc1cc(-c2ccc(C#N)cc2)ccc1C(=O)Nc1cnc(Cl)c(-c2nc3ccccc3[nH]2)c1` [Example 70, N-(5-(1H-benzo[d]imidazol-2-yl)-6-chloropyridin-3-yl)-3-methyl-4′-cyanobiphenyl-4-carboxamide] the same measures were 34 nM, 2.8 nM and 1.7 nM.
With `Cc1cc(-c2ccc(C(F)(F)F)cc2)ccc1C(=O)Nc1cnc(C)c(-c2nc3ccccc3[nH]2)c1` [Example 71, N-(5-(1H-benzo[d]imidazol-2-yl)-6-methylpyridin-3-yl)-3-methyl-4′-(trifluoromethyl)biphenyl-4-carboxamide], the IC50 in test [1] was 181 nM; in test [2] it was 3.6 nM; in test [3], 7.1 nM.
For `Cc1ccc(-c2cnc(-c3cc(NC(=O)c4ccc(-c5ccc(C(F)(F)F)cc5)cc4C)ccc3Cl)[nH]2)cc1` [Example 77, N-(3-(5-p-tolyl-1H-imidazol-2-yl)-4-chlorophenyl)-3-methyl-4′-(trifluoromethyl)biphenyl-4-carboxamide], the half-maximal inhibitory concentration (IC50) in test [1] is 139 nM; in test [2], 1.9 nM; in test [3], 7.1 nM.
In the case of `Cc1cc(-c2ccc(C(F)(F)F)cc2)ccc1C(=O)Nc1ccc(Cl)c(-c2ncc(-c3ccc(F)cc3)[nH]2)c1` [Example 78, N-(3-(5-(4-fluorophenyl)-1H-imidazol-2-yl)-4-chlorophenyl)-3-methyl-4′-(trifluoromethyl)biphenyl-4-carboxamide], the half-maximal inhibitory concentration (IC50) in test [1] is 166 nM; in test [2], 4.8 nM; in test [3], 15 nM.

By IC50 is commonly meant the concentration that gives 50% inhibition.
